Broadly, the EC50 is the midpoint of the concentration-response curve.

Data on 1 molecule can be found in patent US11235020B2, “Methods and compositions for inhibiting glyoxalase 1 (GLO1)” (priority 2013, dated 2022).

Structures are written as SMILES. Like-named read-outs stand apart in the source and are kept apart here.

Data set [1] is described as follows: HPLC measurement of MG concentration in whole brain after i.p. MG. Type of data set: in vivo, mouse. The conditions noted are these: for concentration at 10 min: intraperitoneal, read-out: Estimated MG concentration; for concentration at 10 min / MG concentration (nmol/g tissue): brain; for MG concentration (nmol/g tissue): 10 min post-injection. How it is done: MG concentration was measured by HPLC as previously described with modifications (Dhar 2009). Tissue was homogenized in 50 mM sodium phosphate buffer (pH 6.6) and 0.8N perchloric acid. It was then incubated on ice for 10 minutes and centrifuged. The supernatant was filtered, and MG was derivatized with 10 mM o-phenylenediamine to form 2-methylquinoxaline (2-MQ). 5-methylquinoxaline (5-MQ, 15 μM) was spiked into each sample as an internal standard. 2-MQ was quantified using an HP 1100 HPLC system (Agilent) with a Nova-Pak C18 column (Waters Corporation). Column effluent was monitored at 315 nm. 2-MQ concentration was determined by comparison to 2-MQ standards of known mass. Quantification of 2-MQ was corrected for losses by comparison with 5-MQ. MG concentration was calculated as 2-MQ/tissue weight. Treatment: Unless otherwise noted, crude MG was used for all behavioral experiments. MG was obtained from Sigma-Aldrich, filter-sterilized (0.22 μm filter, Millipore), diluted in vehicle (0.9% NaCl), and adjusted to pH 7.4. Mice were injected i.p. with 10 ml/kg MG or vehicle. HPLC: Ten minutes post-injection, mice were sacrificed, and brains were rapidly dissected and flash-frozen on dry ice. MG concentration was measured as described above.

Data set [2] concerns motor coordination in mice. Briefly: Balance beam test. It counts as in vivo, mouse. As to conditions: 300 mg/kg i.p., B6 mice. How it is done: The balance beam was 97 cm×9.5 mm and elevated to 46 cm. Mice were tested on the balance beam, and missteps were counted.
Balance beam: The balance beam test was performed as described above. Ten minutes post-injection, mice were tested on the balance beam, and missteps were recorded.

Data set [3] relates to GABAA receptors in cerebellar granule neurons. Briefly: Whole-cell patch clamp in cerebellar granule neurons (CGN). Type of data set: cell-based, rat. On the procedure:
Reagents: All reagents were obtained from Sigma-Aldrich.
Culture of rat CGN: CGN were cultured from mixed-sex Sprague-Dawley rats. Tissue was dissected from 6- to 8-day-old rats. Cells were suspended in minimal essential medium supplemented with 10% fetal calf serum, 26 mM glucose, 19 mM KCl, 2 mM 1-glutamine, and penicillin/streptomycin (50 IU/ml and 50 μg/ml). Cells were seeded on poly-1-lysine-coated coverslips and incubated in a humidified atmosphere containing 5% CO2 at 37° C. After 48 hours, the culture medium was replaced with minimal essential medium supplemented with 10% horse serum, 26 mM glucose, 19 mM KCl, 2 mM 1-glutamine, penicillin/streptomycin (50 IU/ml and 50 μg/ml), and 80 μM 1-fluorodeoxyuridine. Culture medium was exchanged every three days. All recordings were made from cells between days 6 to 9 in culture.
Filter and sampling frequencies were 5 and 25 kHz, respectively, for voltage-clamp experiments and 1 and 10 kHz, respectively, for current-clamp recording. Experiments were performed at 32° C. using a feedback-controlled heated perfusion system (Warner Instruments). Vm, ligand-gated currents, and potassium channel currents were studied in a bath solution containing 1 mM CaCl2, 1 mM MgCl2, 4 mM KCl, 140 mM NaCl, 5 mM glucose, and 10 mM HEPES (pH 7.4). […] Electrodes were coated with Sigmacote (Sigma) prior to use.
Ligand-gated currents: Ligand-gated currents were studied in voltage-clamp mode by application of reagents to cells held at −50 mV.

The test system of the next data set is glycine receptors. In words: Glycinergic currents in CGN. Type of data set: cell-based, rat. The conditions noted are these: 10 μM MG. An excerpt: Ligand-gated currents: Ligand-gated currents were studied in voltage-clamp mode by application of reagents to cells held at −50 mV. GABAergic and glycinergic currents were activated by application of GABA and glycine and antagonized by application of SR and strychnine, respectively (Kaneda 1995). Glutamatergic currents were activated by 1-glutamate and antagonized by CNQX and AP-5 (Wyllie 1994).

Data set [4] relates to depression-like behavior in mice. Briefly: Tail suspension test (TST). It counts as in vivo, mouse. The conditions noted are these: MG 50 mg/kg i.p., acute, 10 min before test, B6 mice. How it is done: Mice were suspended by their tails using adhesive tape attached to a bar elevated approximately 46 cm above a table. The apparatus was illuminated to approximately 1,000 lux. Mice were tested individually, and time spent immobile was scored manually for six minutes. For MG studies, mice were treated with vehicle (0.9% saline) or crude MG (Sigma-Aldrich, 50 mg/kg) by i.p. injection ten minutes before the test. Behavior was scored for five minutes.

The test system of data set [5] is anxiety-like behavior in C57BL6/J mice. Briefly: OFT after bilateral microinjection into the basolateral amygdala (BLA). The conditions noted are these: MG 12 uM or 24 uM, 0.5 ul bilateral into BLA, over 30 m.

For the molecule `CC(=O)C=O` [MG, methylglyoxal], the concentration at 10 min in data set [1] (B6, mouse, MG 50 mg/kg i.p. (anxiolytic dose)) is 5.94 µM; in data set [1] (B6, mouse, MG 100 mg/kg i.p.), 6.54 µM; in data set [1] (B6, mouse, MG 300 mg/kg i.p.) it was 8.26 µM; in data set [1] (mouse, MG 50 mg/kg i.p. (anxiolytic dose)), approximately 6 µM. Besides, the “expected increase of the concentration of MG in the brain” value is “approximately 16%” in data set [1] (MG 50 mg/kg) and approximately 43% in data set [1] (MG 200 mg/kg). The “MG concentration (nmol/g tissue)” value in data set [1] (MG 50 mg/kg i.p.) was 5.66 ± 0.36 nmol/g tissue; in data set [1] (MG 100 mg/kg i.p.), 6.23 ± 0.26 nmol/g tissue; in data set [1] (MG 300 mg/kg i.p.) it was 7.87 ± 0.56 nmol/g tissue. Besides, the “footslips on the balance beam (ataxia)” value in data set [2] is “made more footslips than vehicle-treated mice”. Also, the EC50 in data set [3] (read-out: EC50 of evoked inward currents in CGN, whole-cell voltage clamp) was determined as 12 ± 0.7 µM; in data set [3] (whole-cell current clamp, read-out: EC50 of depolarization of CGN) it was 10.5 ± 0.5 µM. Moreover, the “activation of glycine receptors” value with glycine receptors is recorded as “did not activate”. The “duration of immobility in the TST” value in data set [4] is “did not affect the duration of immobility”. Moreover, the “center duration in the OFT” value in data set [5] was “increased center duration in the OFT”.
